Legend:
[1] = Inhibition of Saccharomyces cerevisiae alpha-glucosidase using p-nitophenyl alpha […]D-glucoside incubated for 45 mins
[2] = Inhibition of LPS-induced TNF-alpha expression in human U-937 cells preincubated for 1 hr followed by LPS addition and measured after 24 hrs by ELISA; assay type: functional, cell-based
DU-145 = assay: Antiproliferative activity against human DU-145 cells assessed as reduction in cell viability after 48 hrs by MTT assay; assay type: functional, cell-based; settings: DU-145, 48 h
L132 = assay: Cytotoxicity against human L132 cells assessed as reduction in cell viability after 48 hrs by MTT assay; assay type: cell-based; settings: L132, 48 h
PC-3 = assay: Antiproliferative activity against human PC3 cells assessed as reduction in cell viability after 48 hrs by MTT assay; assay type: functional, cell-based; settings: PC-3, 48 h
A549 = assay: Antiproliferative activity against human A549 cells assessed as reduction in cell viability after 48 hrs by MTT assay; assay type: functional, cell-based; settings: A549, 48 h
MDA-MB-231 = assay: Antiproliferative activity against human MDA-MB-231 cells assessed as reduction in cell viability after 48 hrs by MTT assay; assay type: functional, cell-based; settings: MDA-MB-231, 48 h
SiHa = assay: Antiproliferative activity against human SiHa cells assessed as reduction in cell viability after 48 hrs by MTT assay; assay type: functional, cell-based
HT-29 = assay: Antiproliferative activity against human HT-29 cells assessed as reduction in cell viability after 48 hrs by MTT assay; assay type: functional, cell-based; settings: HT-29, 48 h
U-87 MG = assay: Antiproliferative activity against human U87 cells assessed as reduction in cell viability after 48 hrs by MTT assay; assay type: functional, cell-based, U-87MG ATCC
[3] = Inhibition of LPS-induced IL-1beta expression in human U-937 cells preincubated for 1 hr followed by LPS addition and measured after 24 hrs by ELISA; assay type: functional, cell-based

IC50 [1] [µM] | IC50 [2] [µM] | IC50 (DU-145) [µM] | IC50 (PC-3) [µM] | IC50 (A549) [µM] | IC50 (MDA-MB-231) [µM] | IC50 (HT-29) [µM] | IC50 (U-87 MG) [µM] | IC50 [3] [µM] | Structure (SMILES) | IC50 (L132) [µM] | IC50 (SiHa) [µM]
167 | 15.6 | > 150 | 40.7 | > 150 | 90.5 | 56.6 | – | – | C/C(=C\CC/C(C)=C/CC[C@@H]1[C@@]2(C)CCC(=O)C(C)(C)[C@H]2CC[C@@]1(C)O)CC/C=C(\C)C(=O)O | > 150 | 96.7
– | – | 46.1 | 18.9 | 45.1 | 114 | 27.4 | > 150 | – | C#CCOC(=O)/C(C)=C/CC/C(C)=C/CC/C(C)=C/CC[C@@H]1[C@@]2(C)CCC(=O)C(C)(C)[C@H]2CC[C@@]1(C)O | – | –
– | 8.34 | 13.8 | 18.9 | 35 | 38 | 55.6 | > 150 | 9.12 | C/C(=C\CC/C(C)=C/CC[C@@H]1[C@@]2(C)CCC(=O)C(C)(C)[C@H]2CC[C@@]1(C)O)CC/C=C(\C)C(=O)OCc1cn([C@@H]2C[C@@H](n3cc(C)c(=O)[nH]c3=O)O[C@H]2CO)nn1 | 115 | 41.7
– | – | 3.11 | 5.05 | 2.58 | 0.034 | 0.082 | 5.94 | – | COc1cccc2c1C(=O)c1c(O)c3c(c(O)c1C2=O)C[C@@](O)(C(=O)CO)C[C@@H]3O[C@H]1C[C@H](N)[C@H](O)[C@H](C)O1 [DOXORUBICIN] | 0.01 | 0.311

Reference: ChEMBL document CHEMBL4680137, “Synthesis and biological evaluation of some novel 1,2,3-triazole hybrids of myrrhanone B isolated from Commiphora mukul gum resin: Identification of potent antiproliferative leads active against prostate cancer cells (PC-3)” (Eur J Med Chem, 2020)
